# Experiments:
# Assay in all cases: relative viability (nuclei count vs DMSO), 5 days (fraction); higher = more cells survive
# A-427 = tested on: A-427
# Method in brief: (§1)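 Relative viability divides the nuclei count in treated wells by that in vehicle wells. Lung cancer cell lines were seeded in 1536-well plates, dosed by pin tool the next day, and fixed and stained after 5 days in one step with final 0.05% Triton X-100, 1% formaldehyde and 1 ug/ml Hoechst. Dosing was a single drug or a fixed anchor-drug dose plus five library-drug doses (not always all listed) in √10 steps, and values are medians of duplicate plates imaged at 4×.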
# BEN = tested on: BEN
# Method in brief: as §1
# HARA = tested on: HARA
# Method in brief: as §1
# LCLC-97TM1 = tested on: LCLC-97TM1
# Method in brief: as §1
# LOU-NH91 = tested on: LOU-NH91
# Method in brief: as §1
# LU99A = tested on: LU99A
# Method in brief: as §1
# LXF-289 = tested on: LXF-289
# Method in brief: as §1
# NCI-H1395 = tested on: NCI-H1395
# Method in brief: as §1
# NCI-H1666 = tested on: NCI-H1666
# Method in brief: as §1
# NCI-H1755 = tested on: NCI-H1755
# Method in brief: as §1
# NCI-H1793 = tested on: NCI-H1793
# Method in brief: as §1
# NCI-H1915 = tested on: NCI-H1915
# Method in brief: as §1
# NCI-H1944 = tested on: NCI-H1944
# Method in brief: as §1
# NCI-H2023 = tested on: NCI-H2023
# Method in brief: as §1
# NCI-H2126 = tested on: NCI-H2126
# Method in brief: as §1
# NCI-H2170 = tested on: NCI-H2170
# Method in brief: as §1
# NCI-H23 = tested on: NCI-H23
# Method in brief: as §1
# NCI-H322M = tested on: NCI-H322M
# Method in brief: as §1
# NCI-H441 = tested on: NCI-H441
# Method in brief: as §1
# NCI-H460 = tested on: NCI-H460
# Method in brief: as §1
# NCI-H650 = tested on: NCI-H650
# Method in brief: as §1
# PC-3 [JPC-3] = tested on: PC-3 [JPC-3]
# Method in brief: as §1
# SK-LU-1 = tested on: SK-LU-1
# Method in brief: as §1
smiles,measurement,setting,value
O=c1[nH]c2ccccc2n1C1CCN(CCCC(c2ccc(F)cc2)c2ccc(F)cc2)CC1 [Pimozide] + O=C(c1cc(Cc2n[nH]c(=O)c3ccccc23)ccc1F)N1CCN(C(=O)C2CC2)CC1 [Olaparib] (partner 8 µM),relative viability,A-427; first compound 0.08 µM,0.708
same,relative viability,A-427; first compound 0.253 µM,0.681
same,relative viability,A-427; first compound 0.8 µM,0.661
same,relative viability,A-427; first compound 2.53 µM,0.691
same,relative viability,A-427; first compound 8 µM,0.685
same,relative viability,BEN; first compound 0.08 µM,1.15
same,relative viability,BEN; first compound 0.253 µM,1.15
same,relative viability,BEN; first compound 0.8 µM,1.1
same,relative viability,BEN; first compound 2.53 µM,1.07
same,relative viability,BEN; first compound 8 µM,1.29
same,relative viability,HARA; first compound 0.08 µM,0.785
same,relative viability,HARA; first compound 0.253 µM,0.764
same,relative viability,HARA; first compound 0.8 µM,0.746
same,relative viability,HARA; first compound 2.53 µM,0.74
same,relative viability,HARA; first compound 8 µM,0.749
same,relative viability,LCLC-97TM1; first compound 0.08 µM,0.387
same,relative viability,LCLC-97TM1; first compound 0.253 µM,0.314
same,relative viability,LCLC-97TM1; first compound 0.8 µM,0.404
same,relative viability,LCLC-97TM1; first compound 2.53 µM,0.222
same,relative viability,LCLC-97TM1; first compound 8 µM,0.269
same,relative viability,LOU-NH91; first compound 0.08 µM,0.655
same,relative viability,LOU-NH91; first compound 0.253 µM,0.911
same,relative viability,LOU-NH91; first compound 0.8 µM,0.866
same,relative viability,LOU-NH91; first compound 2.53 µM,0.962
same,relative viability,LOU-NH91; first compound 8 µM,0.971
same,relative viability,LU99A; first compound 0.08 µM,0.251
same,relative viability,LU99A; first compound 0.8 µM,0.26
same,relative viability,LU99A; first compound 2.53 µM,0.297
same,relative viability,LU99A; first compound 8 µM,0.254
same,relative viability,LXF-289; first compound 0.08 µM,1.09
same,relative viability,LXF-289; first compound 0.253 µM,1.04
same,relative viability,LXF-289; first compound 0.8 µM,1.01
same,relative viability,LXF-289; first compound 2.53 µM,0.937
same,relative viability,LXF-289; first compound 8 µM,1.03
same,relative viability,NCI-H1395; first compound 0.08 µM,0.445
same,relative viability,NCI-H1395; first compound 0.253 µM,0.478
same,relative viability,NCI-H1395; first compound 0.8 µM,0.475
same,relative viability,NCI-H1395; first compound 2.53 µM,0.456
same,relative viability,NCI-H1395; first compound 8 µM,0.419
same,relative viability,NCI-H1666; first compound 0.08 µM,0.708
same,relative viability,NCI-H1666; first compound 0.253 µM,0.737
same,relative viability,NCI-H1666; first compound 0.8 µM,0.787
same,relative viability,NCI-H1666; first compound 2.53 µM,0.756
same,relative viability,NCI-H1666; first compound 8 µM,0.754
same,relative viability,NCI-H1755; first compound 0.08 µM,0.879
same,relative viability,NCI-H1755; first compound 0.253 µM,0.842
same,relative viability,NCI-H1755; first compound 0.8 µM,0.845
same,relative viability,NCI-H1755; first compound 2.53 µM,0.825
same,relative viability,NCI-H1755; first compound 8 µM,0.776
same,relative viability,NCI-H1793; first compound 0.08 µM,0.762
same,relative viability,NCI-H1793; first compound 0.253 µM,0.826
same,relative viability,NCI-H1793; first compound 0.8 µM,0.875
same,relative viability,NCI-H1793; first compound 2.53 µM,0.772
same,relative viability,NCI-H1793; first compound 8 µM,0.706
same,relative viability,NCI-H1915; first compound 0.08 µM,0.259
same,relative viability,NCI-H1915; first compound 0.253 µM,0.241
same,relative viability,NCI-H1915; first compound 2.53 µM,0.246
same,relative viability,NCI-H1915; first compound 8 µM,0.243
same,relative viability,NCI-H1944; first compound 0.08 µM,0.427
same,relative viability,NCI-H1944; first compound 2.53 µM,0.35
same,relative viability,NCI-H1944; first compound 8 µM,0.413
same,relative viability,NCI-H2023; first compound 0.08 µM,0.481
same,relative viability,NCI-H2023; first compound 0.253 µM,0.47
same,relative viability,NCI-H2023; first compound 0.8 µM,0.444
same,relative viability,NCI-H2023; first compound 2.53 µM,0.351
same,relative viability,NCI-H2023; first compound 8 µM,0.348
same,relative viability,NCI-H2126; first compound 0.08 µM,0.922
same,relative viability,NCI-H2126; first compound 0.253 µM,0.89
same,relative viability,NCI-H2126; first compound 0.8 µM,0.944
same,relative viability,NCI-H2126; first compound 2.53 µM,0.92
same,relative viability,NCI-H2126; first compound 8 µM,0.858
same,relative viability,NCI-H2170; first compound 0.08 µM,0.592
same,relative viability,NCI-H2170; first compound 0.253 µM,0.554
same,relative viability,NCI-H2170; first compound 0.8 µM,0.608
same,relative viability,NCI-H2170; first compound 2.53 µM,0.593
same,relative viability,NCI-H2170; first compound 8 µM,0.543
same,relative viability,NCI-H23; first compound 0.08 µM,0.293
same,relative viability,NCI-H23; first compound 0.253 µM,0.326
same,relative viability,NCI-H23; first compound 0.8 µM,0.325
same,relative viability,NCI-H23; first compound 2.53 µM,0.285
same,relative viability,NCI-H23; first compound 8 µM,0.275
same,relative viability,NCI-H322M; first compound 0.08 µM,0.76
same,relative viability,NCI-H322M; first compound 0.253 µM,0.732
same,relative viability,NCI-H322M; first compound 0.8 µM,0.684
same,relative viability,NCI-H322M; first compound 2.53 µM,0.833
same,relative viability,NCI-H322M; first compound 8 µM,0.795
same,relative viability,NCI-H441; first compound 0.08 µM,0.641
same,relative viability,NCI-H441; first compound 0.253 µM,0.593
same,relative viability,NCI-H441; first compound 0.8 µM,0.506
same,relative viability,NCI-H441; first compound 2.53 µM,0.416
same,relative viability,NCI-H441; first compound 8 µM,0.57
same,relative viability,NCI-H460; first compound 0.08 µM,0.499
same,relative viability,NCI-H460; first compound 0.253 µM,0.48
same,relative viability,NCI-H460; first compound 0.8 µM,0.394
same,relative viability,NCI-H460; first compound 2.53 µM,0.361
same,relative viability,NCI-H460; first compound 8 µM,0.398
same,relative viability,NCI-H650; first compound 0.08 µM,0.409
same,relative viability,NCI-H650; first compound 0.253 µM,0.333
same,relative viability,NCI-H650; first compound 0.8 µM,0.475
same,relative viability,NCI-H650; first compound 2.53 µM,0.404
same,relative viability,NCI-H650; first compound 8 µM,0.408
same,relative viability,PC-3 [JPC-3]; first compound 0.253 µM,1.09
same,relative viability,PC-3 [JPC-3]; first compound 0.8 µM,1.1
same,relative viability,PC-3 [JPC-3]; first compound 2.53 µM,1.08
same,relative viability,PC-3 [JPC-3]; first compound 8 µM,1
same,relative viability,SK-LU-1; first compound 0.08 µM,0.497
same,relative viability,SK-LU-1; first compound 0.253 µM,0.485
same,relative viability,SK-LU-1; first compound 0.8 µM,0.487
same,relative viability,SK-LU-1; first compound 2.53 µM,0.372
same,relative viability,SK-LU-1; first compound 8 µM,0.383

# Source: the supplement of paper PMC10307832
